Data from patent publication US20230167073A1 (Teijin Pharma Limited, priority 2020, published 2023).

Target: T1, Human TRPC6 (Homo sapiens, UniProt Q9Y210)
T1 construct: expressed in transfected cells
T1 sequence (Q9Y210 1-931): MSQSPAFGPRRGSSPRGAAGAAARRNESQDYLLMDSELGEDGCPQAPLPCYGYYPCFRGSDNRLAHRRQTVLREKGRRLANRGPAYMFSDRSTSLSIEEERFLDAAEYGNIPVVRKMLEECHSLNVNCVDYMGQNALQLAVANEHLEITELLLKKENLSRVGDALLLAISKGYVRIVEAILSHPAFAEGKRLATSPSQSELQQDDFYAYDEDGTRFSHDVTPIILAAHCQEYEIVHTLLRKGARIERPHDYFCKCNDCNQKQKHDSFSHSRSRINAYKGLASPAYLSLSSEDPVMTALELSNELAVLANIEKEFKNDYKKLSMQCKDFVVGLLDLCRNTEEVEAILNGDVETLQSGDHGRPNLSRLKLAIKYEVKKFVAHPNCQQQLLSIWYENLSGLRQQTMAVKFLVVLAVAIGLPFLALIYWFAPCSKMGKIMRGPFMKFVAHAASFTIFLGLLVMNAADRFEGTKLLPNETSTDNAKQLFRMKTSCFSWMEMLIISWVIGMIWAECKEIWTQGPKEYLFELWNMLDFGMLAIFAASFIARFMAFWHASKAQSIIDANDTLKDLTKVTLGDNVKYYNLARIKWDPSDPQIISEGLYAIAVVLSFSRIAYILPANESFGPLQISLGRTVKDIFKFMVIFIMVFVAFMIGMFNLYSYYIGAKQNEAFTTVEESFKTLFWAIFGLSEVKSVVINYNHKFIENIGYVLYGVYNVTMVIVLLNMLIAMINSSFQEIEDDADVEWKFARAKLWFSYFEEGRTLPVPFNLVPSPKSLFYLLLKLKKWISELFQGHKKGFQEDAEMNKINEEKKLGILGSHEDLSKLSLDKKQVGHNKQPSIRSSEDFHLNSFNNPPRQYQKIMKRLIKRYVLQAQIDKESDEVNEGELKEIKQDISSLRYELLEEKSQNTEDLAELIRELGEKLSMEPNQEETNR
Experiment: Evaluation of TRPC6 channel inhibitory activity (1), FLIPR Calcium 5 Assay Kit, OAG stimulation (Compound Nos. 1-1293)
Type: cell-based
Details: Human TRPC6 stably-expressing cells, OAG 30 μM, FLIPR Calcium 5 Assay Kit; read-out: Inhibitory activity (pIC50 class) (converted)
Description: Evaluation of TRPC6 Channel Inhibitory Activity (1) (Compound Nos. 1-1293)
In order to investigate TRPC6 channel inhibitory activity of the compounds, evaluation was conducted using FLIPR® Calcium 5 Assay Kit (Molecular Devices) in accordance with the following procedure. Human TRPC6 stably-expressing cells were seeded in a 384-well black clear bottom plate at a density of 5×10^3/well and cultured in an incubator at 37° C. 5% CO2 for 24 hours. Thereafter, 25 μL of a Non Wash Dye Solution, prepared using Component A, 20 mM HEPES-HBSS and 250 mM probenecid, all of which are included in the kit, was added to each well, and the plate was incubated for 30 minutes. A volume of 12.5 μL of a compound solution was added into each well while the fluorescence was measured with FLIPR tetra. After 20 minutes, 12.5 μL of a 1-oleoyl-2-acetyl glycerol (OAG) solution was added at a final concentration of 30 μM. The difference between the minimum fluorescence intensity before the addition of the compound and the maximum fluorescence intensity after the addition of OAG was defined as a signal. An inhibition rate was calculated, assuming the average signal of wells without the compound as the inhibition rate of 0% and the average signal of wells without the compound and OAG as the inhibition rate of 100%. The calculated inhibition rate was analyzed by a four-parameter logistic regression to quantify the inhibition rate in the logarithm of the inverse of the effective concentration which gives a 50% inhibition rate (pIC50). The intensity was expressed by the following symbols (+, ++, +++).

| IC50 [nM] | Compound |
| --- | --- |
| 10 to 1000 | Cc1cc(Oc2cc(C#N)ccc2-c2ncc([C@H](O)CN)cn2)cc(-c2ccccn2)n1 [compound 688, 4-[5-[(1S)-2-amino-1-hydroxyethyl]pyrimidin-2-yl]-3-(2-methyl-6-pyridin-2-ylpyridin-4-yl)oxybenzonitrile] |
| 10 to 1000 | Cn1nc(-c2ccccc2)cc1Oc1cc(C#N)ccc1-c1ccc(C(N)C(=O)O)cn1 (stereo not drawn) [compound 428, 2-amino-2-[6-[4-cyano-2-(2-methyl-5-phenylpyrazol-3-yl)oxyphenyl]pyridin-3-yl]acetic acid] |
| > 1000 | Cc1nnc(-c2cc(Oc3cc(C#N)ccc3-c3ncc(CN)cn3)n(C)n2)s1 [compound 961, 4-[5-(aminomethyl)pyrimidin-2-yl]-3-[2-methyl-5-(5-methyl-1,3,4-thiadiazol-2-yl)pyrazol-3-yl]oxybenzonitrile] |
| 10 to 1000 | N#Cc1ccc(-c2ncc(CCN)cn2)c(C(=O)c2nnc(N3CCOCC3)s2)c1 [compound 1096, 4-[5-(2-aminoethyl)pyrimidin-2-yl]-3-(5-morpholin-4-yl-1,3,4-thiadiazole-2-carbonyl)benzonitrile] |
| < 10 | N#Cc1ccc(-c2ccc(CCN)cc2)c(Sc2cnnc(N3CCCCC3)c2)c1 [Compound No. 1240, 4-[4-(2-Aminoethyl)phenyl]-3-(6-piperidin-1-ylpyridazin-4-yl)sulfanylbenzonitrile] |
| < 10 | CN(CC(F)F)c1cc(Oc2cc(F)ccc2-c2ccc(CCN)cn2)n(C)n1 [compound 988, 5-[2-[5-(2-aminoethyl)pyridin-2-yl]-5-fluorophenoxy]-N-(2,2-difluoroethyl)-N,1-dimethylpyrazole-3-amine] |
| 10 to 1000 | Cc1nc(NCC(F)(F)F)cc(Oc2cc(C#N)ccc2-c2ncc(CN)cn2)n1 [compound 640, 4-[5-(aminomethyl)pyrimidin-2-yl]-3-[2-methyl-6-(2,2,2-trifluoroethylamino)pyrimidin-4-yl]oxybenzonitrile] |
| > 1000 | CCOC(=O)CCNCCc1ccc(-c2ccc(C#N)cc2Oc2cc(N3CCOCC3)nc(C)n2)cc1 [Compound 54, ethyl 3-[2-[4-[4-cyano-2-(2-methyl-6-morpholin-4-ylpyrimidin-4-yl)oxyphenyl]phenyl]ethylamino] propanoate] |
| 10 to 1000 | Cn1nc(C2CC2)cc1Oc1cc(C#N)ccc1-c1ccc(C(N)C#N)cn1 (stereo not drawn) [compound 422, 4-[5-[amino(cyano)methyl]pyridin-2-yl]-3-(5-cyclopropyl-2-methylpyrazol-3-yl)oxybenzonitrile] |
| > 1000 | Cn1nc(C2CC2)cc1Oc1cc(C#N)ccc1-c1cnc(CCN)nc1 [compound 347, 4-[2-(2-aminoethyl)pyrimidin-5-yl]-3-(5-cyclopropyl-2-methylpyrazol-3 yl)oxybenzonitrile] |
| 10 to 1000 | Cc1nc(Oc2cc(C#N)ccc2-c2ncc(CN)cn2)cc(N2CCC[C@H]2C#N)n1 [compound 675, (2S)-1-[6-[2-[5-(aminomethyl)pyrimidin-2-yl]-5-cyanophenoxy]-2-methylpyrimidin-4-yl]pyrrolidine-2-carbonitrile] |
| < 10 | Cn1nc(-c2cccnc2)cc1Oc1cc(C#N)ccc1-c1ccc(C(O)CN)cc1 (stereo not drawn) [Compound 177, 4-[4-(2-amino-1-hydroxyethyl)phenyl]-3-(2-methyl-5-pyridin-3-ylpyrazol-3-yl)oxybenzonitrile] |
| 10 to 1000 | N#Cc1ccc(-c2ncc(CCN)cn2)c(C(=O)c2cnc(C(F)(F)F)s2)c1 [compound 1039, 4-[5-(2-aminoethyl)pyrimidin-2-yl]-3-[2-(trifluoromethyl)-1,3-thiazole-5-carbonyl]benzonitrile] |
| 10 to 1000 | Cn1nc(-c2ccc(Cl)cc2)cc1Oc1cc(C#N)ccc1-c1ccc([C@@H](O)CN)cn1 [compound 377, 4-[5-[(1R)-2-amino-1-hydroxyethyl]pyridin-2-yl]-3-[5-(4-chlorophenyl)-2-methylpyrazol-3-yl]oxybenzonitrile] |
| < 10 | Cn1nc(N2CCOCC2)cc1Oc1cc(C#N)ccc1-c1ncc(CN)cn1 [compound 772, 4-[5-(aminomethyl)pyrimidin-2-yl]-3-(2-methyl-5-morpholin-4-ylpyrazol-3-yl)oxybenzonitrile] |
| 10 to 1000 | Cc1cc(Oc2cc(C#N)ccc2-c2ccc(CN)cn2)cc(NC2CC2)n1 [compound 645, 4-[5-(aminomethyl)pyridin-2-yl]-3-[2-(cyclopropylamino)-6-methylpyridin-4-yl]oxybenzonitrile] |
| > 1000 | CN(C)C(=O)C(N)c1ccc(-c2ccc(C#N)cc2Oc2cc(C3CC3)nn2C)nc1 (stereo not drawn) [compound 489, 2-amino-2-[6-[4-cyano-2-(5-cyclopropyl-2-methylpyrazol-3-yl)oxyphenyl]pyridin-3-yl]-N,N-dimethylacetamide] |
| 10 to 1000 | N#Cc1ccc(-c2ccc(CCN)cn2)c(Sc2cnnc(N3CCOCC3)c2)c1 [compound 1242, 4-[5-(2-aminoethyl)pyridin-2-yl]-3-(6-morpholin-4-ylpyridazin-4-yl)sulfanylbenzonitrile] |
| < 10 | Cn1nc(-c2ccccn2)cc1Oc1cc(C#N)ccc1-c1cc(CCN)ccn1 [compound 587, 4-[4-(2-aminoethyl)pyridin-2-yl]-3-(2-methyl-5-pyridin-2-ylpyrazol-3-yl)oxybenzonitrile] |
| 10 to 1000 | Cn1nc(C2CCOCC2)cc1Oc1cc(F)ccc1-c1ncc(CCN)cn1 [compound 1009, 2-[2-[4-fluoro-2-[2-methyl-5-(oxan-4-yl)pyrazol-3-yl]oxyphenyl]pyrimidin-5-yl]ethanamine] |
| < 10 | Cn1nc(C2CCC2)cc1Oc1cc(C#N)ccc1-c1ccc(C(F)(F)CN)cn1 [Compound 294, 4-[5-(2-amino-1,1-difluoroethyl)pyridin-2-yl]-3-(5-cyclobutyl-2-methylpyrazol-3-yl)oxybenzonitrile] |
| 10 to 1000 | Cc1nc(OCC(F)(F)F)cc(Oc2cc(C#N)ccc2-n2cc([C@@H](O)CN)cn2)n1 [Compound 268, 4-[4-[(1R)-2-amino-1-hydroxyethyl]pyrazol-1-yl]-3-[2-methyl-6-(2,2,2-trifluoroethoxy)pyrimidin-4-yl]oxybenzonitrile] |
| < 10 | CCN(CC(F)F)c1cc(C(=O)c2cc(C#N)ccc2-c2ncc(CCN)cn2)n(C)n1 [compound 1073, 4-[5-(2-aminoethyl)pyrimidin-2-yl]-3-[5-[2,2-difluoroethyl(ethyl)amino]-2-methylpyrazole-3-carbonyl]benzonitrile] |
| > 1000 | Cc1cc(Oc2cc(C#N)ccc2-c2ncc(CCN)cn2)cc(-c2ncccn2)n1 [compound 686, 4-[5-(2-aminoethyl)pyrimidin-2-yl]-3-(2-methyl-6-pyrimidin-2-ylpyridin-4-yl)oxybenzonitrile] |
| < 10 | CCCN(CCC)c1cc(Oc2cc(C#N)ccc2-c2ncc(CCN)cn2)n(C)n1 [compound 759, 4-[5-(2-aminoethyl)pyrimidin-2-yl]-3-[5-(dipropylamino)-2-methylpyrazol-3-yl]oxybenzonitrile] |
| 10 to 1000 | NCCc1cnc(-c2ccc(Cl)cc2Oc2cnn(-c3ccccn3)c2)nc1 [compound 1024, 2-[2-[4-chloro-2-(1-pyridin-2-ylpyrazol-4-yl)oxyphenyl]pyrimidin-5-yl]ethanamine] |
| > 1000 | Cc1cc(Oc2cc(C#N)ccc2-c2ccc([C@H](O)CN)cn2)cc(-c2ncccn2)n1 [compound 692, 4-[5-[(1S)-2-amino-1-hydroxyethyl]pyridin-2-yl]-3-(2-methyl-6-pyrimidin-2-ylpyridin-4-yl)oxybenzonitrile] |
